Measurements from paper PMC12564180 (International Journal of Molecular Sciences, 2025).
Blank lines part the entries; values can stand above or below the compound they belong to.

Columns and labels:
[1] = Incubation of 1 µM [3H]filapixant in human liver microsomes with CYP isoform-selective inhibitors; type: in vitro ADME
[2] = Depletion of 1 µM filapixant in human hepatocytes in absence and presence of CYP3A4 selective and pan-CYP inhibitors; type: in vitro ADME; conditions: 1 µM filapixant, in presence of the inhibitor
CYP3A4 [3] = test: as above; type: in vitro ADME; conditions: human, probe filapixant (1 µM, non-labeled), read-out: % of control CLint inhibited
[4] = Clinical drug-drug interaction study filapixant with itraconazole: pharmacokinetics; type: in vivo, human; conditions: plasma, study day 4, itraconazole 200 mg once daily oral solution
Protocol: Spontaneous reported adverse events were recorded as well adverse events that were reported after open-ended and non-leading verbal questioning of the participants to avoid bias. In addition, itraconazole concentrations were measured in plasma at selected time points to confirm that relevant inhibitory plasma levels were achieved.
The study was conducted in a single-center, open-label, fixed sequence design with two periods.
PK parameters were calculated by a non-compartmental analysis using the program WinNonlin version 5.3 (Pharsight Corporation, St. Louis, MO, USA), with the Automation Extension (version 2.90, Bayer Pharma AG, Wuppertal, Germany). The statistical evaluation was performed by using the software package SAS release 9.2 (SAS Institute Inc., Cary, NC, USA). All analyses were exploratory. Therefore, no multiplicity adjustments were performed.
The main PK metrics AUC and Cmax were statistically analyzed, assuming log-normally distributed data. Mean differences between treatments (and their standard error) were determined for logarithmized PK metrics. A total of 90% CIs for treatment differences were determined as well, applying standard methodology for log-normally distributed data. […] Only participants providing a valid PK profile from both study periods were to be included in the primary analysis.

CYP1A1 = target: T1, CYP1A1 (Homo sapiens, UniProt P04798); test: Incubation of filapixant with human recombinant CYP1A1 (Supersomes); type: in vitro ADME; conditions: 1 µM [3H]filapixant, CYP1A1, 60 min
T1 construct: purchased
T1 sequence (P04798 1-512): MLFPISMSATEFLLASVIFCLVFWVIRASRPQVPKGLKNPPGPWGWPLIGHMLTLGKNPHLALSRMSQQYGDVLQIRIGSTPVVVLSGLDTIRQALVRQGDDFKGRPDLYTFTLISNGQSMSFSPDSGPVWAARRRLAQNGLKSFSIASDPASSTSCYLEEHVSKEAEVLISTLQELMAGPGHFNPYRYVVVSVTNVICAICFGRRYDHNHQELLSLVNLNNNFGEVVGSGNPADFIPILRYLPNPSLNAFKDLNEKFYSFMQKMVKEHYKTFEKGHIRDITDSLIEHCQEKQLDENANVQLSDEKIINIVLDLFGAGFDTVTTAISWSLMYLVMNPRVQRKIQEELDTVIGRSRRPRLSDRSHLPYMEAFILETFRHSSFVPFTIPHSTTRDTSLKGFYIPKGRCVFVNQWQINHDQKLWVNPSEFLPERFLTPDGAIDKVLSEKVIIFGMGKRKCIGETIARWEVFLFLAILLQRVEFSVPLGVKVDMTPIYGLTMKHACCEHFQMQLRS

CYP2B6 = target: T2, CYP2B6 (Homo sapiens, UniProt P20813); test: Incubation of [3H]filapixant with human recombinant CYP2B6 (Supersomes); type: in vitro ADME; conditions: 1 µM [3H]filapixant, CYP2B6, 60 min
T2 construct: purchased
T2 sequence (P20813 1-491): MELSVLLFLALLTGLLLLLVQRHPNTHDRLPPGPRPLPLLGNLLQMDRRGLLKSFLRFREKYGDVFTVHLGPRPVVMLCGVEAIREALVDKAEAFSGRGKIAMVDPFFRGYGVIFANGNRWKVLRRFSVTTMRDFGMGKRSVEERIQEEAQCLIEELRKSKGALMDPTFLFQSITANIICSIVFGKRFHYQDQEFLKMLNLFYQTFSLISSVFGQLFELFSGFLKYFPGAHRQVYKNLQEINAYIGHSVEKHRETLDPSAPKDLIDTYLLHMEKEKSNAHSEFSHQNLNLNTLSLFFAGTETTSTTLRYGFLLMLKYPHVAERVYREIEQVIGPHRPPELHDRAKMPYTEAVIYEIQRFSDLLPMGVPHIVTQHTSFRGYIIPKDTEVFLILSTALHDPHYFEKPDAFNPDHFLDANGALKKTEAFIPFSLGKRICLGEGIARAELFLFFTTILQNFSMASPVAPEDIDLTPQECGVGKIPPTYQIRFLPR

CYP3A4 [5] = target: T3, CYP3A4 (Homo sapiens, UniProt P08684); test: Incubation of filapixant with human recombinant CYP3A4 (Supersomes); type: in vitro ADME; conditions: for Remaining drug and formation of metabolites, Peak Area: 1 µM [3H]filapixant, CYP3A4, 60 min; for Vmax of metabolite formation: filapixant in recombinant human CYP3A4 (25 pmol/mL), 20 min incubation
T3 construct: purchased
T3 sequence (P08684 whole entry): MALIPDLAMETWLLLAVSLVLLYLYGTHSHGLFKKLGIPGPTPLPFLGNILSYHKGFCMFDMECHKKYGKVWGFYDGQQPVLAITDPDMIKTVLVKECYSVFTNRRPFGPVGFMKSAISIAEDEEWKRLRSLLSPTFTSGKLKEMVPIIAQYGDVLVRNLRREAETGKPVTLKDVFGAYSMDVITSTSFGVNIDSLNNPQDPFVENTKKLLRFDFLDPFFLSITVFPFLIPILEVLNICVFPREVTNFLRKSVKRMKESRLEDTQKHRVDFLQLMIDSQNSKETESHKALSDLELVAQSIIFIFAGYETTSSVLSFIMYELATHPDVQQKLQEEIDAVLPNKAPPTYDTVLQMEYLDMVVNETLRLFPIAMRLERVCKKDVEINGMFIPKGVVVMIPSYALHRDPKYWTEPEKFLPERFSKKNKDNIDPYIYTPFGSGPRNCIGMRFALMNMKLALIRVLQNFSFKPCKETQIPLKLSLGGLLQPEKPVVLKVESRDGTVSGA

CYP3A5 = target: T4, CYP3A5 (Homo sapiens, UniProt P20815); test: Incubation of [3H]filapixant with human recombinant CYP3A5 (Supersomes); type: in vitro ADME; conditions: 1 µM [3H]filapixant, CYP3A5, 60 min
T4 construct: purchased
T4 sequence (P20815 whole entry): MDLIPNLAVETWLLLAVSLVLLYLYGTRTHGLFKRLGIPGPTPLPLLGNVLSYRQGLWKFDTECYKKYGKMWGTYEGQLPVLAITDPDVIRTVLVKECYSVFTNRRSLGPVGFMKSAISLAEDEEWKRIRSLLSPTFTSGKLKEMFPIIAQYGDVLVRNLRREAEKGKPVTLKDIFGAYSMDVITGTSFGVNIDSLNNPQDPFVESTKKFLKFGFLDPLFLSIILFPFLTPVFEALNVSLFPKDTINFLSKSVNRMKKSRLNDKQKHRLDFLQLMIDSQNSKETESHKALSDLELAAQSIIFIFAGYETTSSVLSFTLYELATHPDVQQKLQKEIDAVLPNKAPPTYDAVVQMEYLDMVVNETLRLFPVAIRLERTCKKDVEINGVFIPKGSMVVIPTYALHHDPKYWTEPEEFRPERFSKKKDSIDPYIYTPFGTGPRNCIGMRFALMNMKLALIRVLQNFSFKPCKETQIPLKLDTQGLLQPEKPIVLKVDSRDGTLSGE

[6] = Biotransformation and enzyme kinetics of filapixant in human liver microsomes; type: in vitro ADME; conditions: [3H]filapixant 1 µM, pooled human liver microsomes, 1 h of incubation, n = 1
Protocol: (§1) The incubations were analyzed by high-performance liquid chromatography (HPLC) with tandem mass spectroscopy (MS/MS) followed by off-line radioactivity detection to generate metabolite profiles and elucidate or confirm the structures of the metabolites formed.

[7] = as above; type: in vitro ADME; conditions: for Vmax of metabolite formation: filapixant in human liver microsomes (0.5 mg/mL), 30 min incubation; for Km at 30 min: human, human liver microsomes, probe filapixant (substrate), read-out: Km,app of metabolite formation
CYP2D6 = target: T5, CYP2D6 (Homo sapiens, UniProt P10635); test: Incubation of filapixant with human recombinant CYP2D6 (Supersomes); type: in vitro ADME; conditions: 1 µM [3H]filapixant, CYP2D6, 60 min
T5 construct: purchased
T5 sequence (P10635 whole entry): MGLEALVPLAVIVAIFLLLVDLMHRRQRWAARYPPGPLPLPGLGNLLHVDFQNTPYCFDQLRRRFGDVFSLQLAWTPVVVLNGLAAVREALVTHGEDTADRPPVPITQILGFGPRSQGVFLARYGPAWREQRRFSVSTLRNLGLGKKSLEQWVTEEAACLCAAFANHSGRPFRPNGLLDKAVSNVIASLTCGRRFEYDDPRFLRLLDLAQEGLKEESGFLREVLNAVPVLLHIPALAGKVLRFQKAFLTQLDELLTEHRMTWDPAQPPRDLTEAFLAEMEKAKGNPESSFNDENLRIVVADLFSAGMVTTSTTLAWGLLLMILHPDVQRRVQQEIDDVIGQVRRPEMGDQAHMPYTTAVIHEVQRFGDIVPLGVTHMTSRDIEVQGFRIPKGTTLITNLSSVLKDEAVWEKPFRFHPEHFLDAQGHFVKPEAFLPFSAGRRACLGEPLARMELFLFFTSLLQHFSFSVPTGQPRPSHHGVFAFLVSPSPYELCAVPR

CYP2J2 = target: T6, CYP2J2 (Homo sapiens, UniProt P51589); test: Incubation of filapixant with human recombinant CYP2J2 (Supersomes); type: in vitro ADME; conditions: 1 µM [3H]filapixant, CYP2J2, 60 min
T6 construct: purchased
T6 sequence (P51589 1-502): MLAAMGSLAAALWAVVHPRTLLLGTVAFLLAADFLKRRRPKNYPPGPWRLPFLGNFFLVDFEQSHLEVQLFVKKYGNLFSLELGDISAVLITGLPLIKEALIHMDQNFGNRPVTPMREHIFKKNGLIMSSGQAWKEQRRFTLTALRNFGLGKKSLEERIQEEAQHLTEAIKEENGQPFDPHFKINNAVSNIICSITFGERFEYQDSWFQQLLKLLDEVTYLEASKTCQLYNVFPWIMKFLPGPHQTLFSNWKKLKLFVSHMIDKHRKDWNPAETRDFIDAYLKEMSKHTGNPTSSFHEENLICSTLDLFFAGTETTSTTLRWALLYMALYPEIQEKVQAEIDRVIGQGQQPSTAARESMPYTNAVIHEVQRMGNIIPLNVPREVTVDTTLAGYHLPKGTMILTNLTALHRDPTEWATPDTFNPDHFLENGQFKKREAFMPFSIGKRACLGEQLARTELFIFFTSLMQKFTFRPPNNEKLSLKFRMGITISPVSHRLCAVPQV

[8] = Biotransformation of [3H]filapixant in human hepatocytes; type: in vitro ADME; conditions: [3H]filapixant 1 µM, 4 h of incubation, range in three batches
Protocol: as §1

[9] = insect, 1 h, 1 µM
CYP2C9 = target: T7, CYP2C9 (Homo sapiens, UniProt P11712); test: Incubation of [3H]filapixant with human recombinant CYP2C9 (Supersomes); type: in vitro ADME; conditions: 1 µM [3H]filapixant, CYP2C9, 60 min
T7 construct: purchased
T7 sequence (P11712 whole entry): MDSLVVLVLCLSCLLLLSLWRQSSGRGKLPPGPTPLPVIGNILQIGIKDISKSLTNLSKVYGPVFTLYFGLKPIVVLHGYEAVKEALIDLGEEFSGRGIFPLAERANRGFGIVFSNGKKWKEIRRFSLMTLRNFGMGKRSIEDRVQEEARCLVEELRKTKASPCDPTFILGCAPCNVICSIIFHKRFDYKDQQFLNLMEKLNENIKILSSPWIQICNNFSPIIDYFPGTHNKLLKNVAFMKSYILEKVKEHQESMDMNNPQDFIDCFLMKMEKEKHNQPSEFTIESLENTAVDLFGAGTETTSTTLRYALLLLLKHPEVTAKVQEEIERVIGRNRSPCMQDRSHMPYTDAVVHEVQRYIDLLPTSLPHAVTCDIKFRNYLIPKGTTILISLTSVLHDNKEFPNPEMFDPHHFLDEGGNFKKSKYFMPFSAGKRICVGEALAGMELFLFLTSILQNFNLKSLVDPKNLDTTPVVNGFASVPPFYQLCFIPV

CYP4F2 = target: T8, CYP4F2 (Homo sapiens, UniProt P78329); test: Incubation of [3H]filapixant with human recombinant CYP4F2 (Supersomes); type: in vitro ADME; conditions: 1 µM [3H]filapixant, CYP4F2, 60 min
T8 construct: purchased
T8 sequence (P78329 5-520): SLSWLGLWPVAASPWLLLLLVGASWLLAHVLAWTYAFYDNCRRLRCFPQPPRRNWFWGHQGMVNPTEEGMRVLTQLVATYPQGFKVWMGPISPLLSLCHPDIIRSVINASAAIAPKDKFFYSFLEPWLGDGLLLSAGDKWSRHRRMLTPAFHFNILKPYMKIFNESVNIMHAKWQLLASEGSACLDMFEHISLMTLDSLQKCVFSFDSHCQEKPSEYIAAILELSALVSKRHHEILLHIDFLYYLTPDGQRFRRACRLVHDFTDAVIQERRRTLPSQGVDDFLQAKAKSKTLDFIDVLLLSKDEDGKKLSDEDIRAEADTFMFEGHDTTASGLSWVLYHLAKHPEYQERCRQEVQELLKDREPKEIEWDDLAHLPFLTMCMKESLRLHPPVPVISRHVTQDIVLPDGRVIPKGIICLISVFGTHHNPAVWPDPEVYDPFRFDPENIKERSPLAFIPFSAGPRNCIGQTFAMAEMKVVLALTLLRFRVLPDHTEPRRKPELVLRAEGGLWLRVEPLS

pan-CYP = test: Depletion of 1 µM filapixant in human hepatocytes in absence and presence of CYP3A4 selective and pan-CYP inhibitors; type: in vitro ADME; conditions: human, probe filapixant (1 µM, non-labeled), read-out: % of control CLint inhibited
[10] = patients; cited from earlier work
CYP2C19 = target: T9, CYP2C19 (Homo sapiens, UniProt P33261); test: Incubation of [3H]filapixant with human recombinant CYP2C19 (Supersomes); type: in vitro ADME; conditions: 1 µM [3H]filapixant, CYP2C19, 60 min
T9 construct: purchased
T9 sequence (P33261 whole entry): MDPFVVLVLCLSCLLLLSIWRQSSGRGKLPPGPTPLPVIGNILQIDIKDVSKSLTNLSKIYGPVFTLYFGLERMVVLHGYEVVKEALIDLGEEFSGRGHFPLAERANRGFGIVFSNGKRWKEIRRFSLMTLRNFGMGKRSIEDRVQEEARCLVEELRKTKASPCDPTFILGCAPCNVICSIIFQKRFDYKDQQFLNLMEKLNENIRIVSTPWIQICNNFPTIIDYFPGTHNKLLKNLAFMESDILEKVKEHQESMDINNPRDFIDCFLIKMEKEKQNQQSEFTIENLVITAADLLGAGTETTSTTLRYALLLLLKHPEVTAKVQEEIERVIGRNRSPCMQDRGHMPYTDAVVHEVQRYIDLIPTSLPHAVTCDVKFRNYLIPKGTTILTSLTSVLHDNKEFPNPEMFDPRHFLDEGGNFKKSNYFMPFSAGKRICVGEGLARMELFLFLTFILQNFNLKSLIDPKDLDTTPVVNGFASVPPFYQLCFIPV

Effect of inhibitor on drug depletion of [3H]filapixant and formation of metabolites [1]: inhibited
Reduction of apparent CLint of filapixant compared to untreated control [2]: 90 to 95%
inhibition at 2 µM (CYP3A4 [3]): 94.4%
Mean maximum concentrations of itraconazole [4]: 1014.6 µg/L
SMILES: CCC(C)n1ncn(-c2ccc(N3CCN(c4ccc(OCC5COC(Cn6cncn6)(c6ccc(Cl)cc6Cl)O5)cc4)CC3)cc2)c1=O (centres unmarked) [Itraconazole, itraconazole]

Remaining drug and formation of metabolites, Peak Area (CYP1A1): 0.5 % of Radioactivity
Remaining drug and formation of metabolites, Peak Area (CYP2B6): 0.4 % of Radioactivity
Remaining drug and formation of metabolites, Peak Area (CYP3A4 [5]): 6.0 % of Radioactivity
Vmax of metabolite formation (CYP3A4 [5]): 7.78E+04 peak area/pmol CYP/min
Remaining drug and formation of metabolites, Peak Area (CYP3A5): 0.8 % of Radioactivity
Recovery of filapixant and metabolite formation, Liver Microsomes [6]: 4.4 % of radioactivity
Vmax of metabolite formation [7]: 1.32E+05 peak area/pmol CYP/min
Km at 30 min [7]: 68 µM
SMILES: Cc1cnc(-c2cc(O)cc(C(=O)N[C@H](C)c3cnc(C(F)(F)F)nc3)c2)s1 [M-6]

Remaining drug and formation of metabolites, Peak Area (CYP1A1): 2.9 % of Radioactivity
Remaining drug and formation of metabolites, Peak Area (CYP2D6): 5.4 % of Radioactivity
Remaining drug and formation of metabolites, Peak Area (CYP2J2): 0.9 % of Radioactivity
Remaining drug and formation of metabolites, Peak Area (CYP3A4 [5]): 0.5 % of Radioactivity
Recovery of filapixant and metabolite formation, Liver Microsomes [6]: 0.9 % of radioactivity
Recovery of filapixant and metabolite formation, Hepatocytes [8]: 0.4–0.8 % of radioactivity
SMILES: C[C@@H](NC(=O)c1cc(OC[C@H]2CN(C)CCO2)cc(-c2ncc(CO)s2)c1)c1cnc(C(F)(F)F)nc1 [M-3]

Effect of inhibitor on drug depletion of [3H]filapixant and formation of metabolites [1]: inhibited
Reduction of apparent CLint of filapixant compared to untreated control [2]: 90 to 95%
inhibition at 2 µM (CYP3A4 [3]): 95.6%
SMILES: COCC(=O)O[C@]1(CCN(C)CCCc2nc3ccccc3[nH]2)CCc2cc(F)ccc2[C@@H]1C(C)C [Mibefradil, mibefradil]

Effect of inhibitor on drug depletion of [3H]filapixant and formation of metabolites [1]: inhibited
SMILES: CC[C@]1(C)C[C@@H](OC(=O)CSc2nnc(N)[nH]2)[C@]2(C)[C@H](C)CC[C@]3(CCC(=O)[C@H]32)[C@@H](C)[C@@H]1O [azamulin]

Remaining drug and formation of metabolites, Peak Area (CYP3A4 [5]): 1.9 % of Radioactivity
Recovery of filapixant and metabolite formation, Hepatocytes [8]: 0–0.3 % of radioactivity
Remaining drug and formation of metabolites, Peak Area [9]: 0.2 % of Radioactivity
SMILES: Cc1cnc(-c2cc(OC[C@H](O)CN)cc(C(=O)N[C@H](C)c3cnc(C(F)(F)F)nc3)c2)s1 [M-11]

Remaining drug and formation of metabolites, Peak Area (CYP1A1): 6.5 % of Radioactivity
Remaining drug and formation of metabolites, Peak Area (CYP3A4 [5]): 6.1 % of Radioactivity
Vmax of metabolite formation (CYP3A4 [5]): 9.20E+03 peak area/pmol CYP/min
Vmax of metabolite formation (Michaelis-Menten plot, Figure S7) (CYP3A4 [5]; recombinant CYP3A4 25 pmol/mL, 20 min, rate axis: area metabolite/min/mg): 9202.
Remaining drug and formation of metabolites, Peak Area (CYP3A5): 1.5 % of Radioactivity
Recovery of filapixant and metabolite formation, Liver Microsomes [6]: 7.6 % of radioactivity
Recovery of filapixant and metabolite formation, Hepatocytes [8]: 1.0–7.5 % of radioactivity
Vmax of metabolite formation [7]: 1.02E+04 peak area/pmol CYP/min
Vmax of metabolite formation (Michaelis-Menten plot, Figure S8) ([7]; human liver microsomes 0.5 mg/mL, 30 min, rate axis: area metabolite/min/mg): 1.021e+4
Km at 30 min [7]: 7.9 µM
SMILES: Cc1cnc(-c2cc(OC[C@H]3CN(C)C(=O)CO3)cc(C(=O)N[C@H](C)c3cnc(C(F)(F)F)nc3)c2)s1 [M-4]

Remaining drug and formation of metabolites, Peak Area (CYP2C9): 0.2 % of Radioactivity
Remaining drug and formation of metabolites, Peak Area (CYP3A4 [5]): 0.4 % of Radioactivity
Remaining drug and formation of metabolites, Peak Area (CYP4F2): 0.5 % of Radioactivity
Recovery of filapixant and metabolite formation, Hepatocytes [8]: 0–0.2 % of radioactivity
SMILES: C[C@@H](NC(=O)c1cc(OC[C@H]2CN(C)CCO2)cc(-c2ncc(C(=O)O)s2)c1)c1cnc(C(F)(F)F)nc1 [M-5]

Reduction of apparent CLint of filapixant compared to untreated control [2]: 90 to 95%
inhibition at 1000 µM (pan-CYP): 94.5%
SMILES: Nn1nnc2ccccc21 [ABT, 1-Aminobenzotriazol]

SMILES: COc1cc(C(C)C)c(Oc2cnc(N)nc2N)cc1S(N)(=O)=O [gefapixant]
Frequency of taste disturbances / taste-related side effects [10]: high frequency

SMILES: Cc1cnc(-c2cc(O[C@@H]3CCOC3)cc(C(=O)N[C@H](C)c3cnc(C(F)(F)F)nc3)c2)s1 [eliapixant]
Frequency of taste disturbances / taste-related side effects [10]: considerably reduced compared to gefapixant

Remaining drug and formation of metabolites, Peak Area (CYP1A1): 0.7 % of Radioactivity
Remaining drug and formation of metabolites, Peak Area (CYP2C9): 0.2 % of Radioactivity
Remaining drug and formation of metabolites, Peak Area (CYP2C19): 0.2 % of Radioactivity
Remaining drug and formation of metabolites, Peak Area (CYP2J2): 0.7 % of Radioactivity
Remaining drug and formation of metabolites, Peak Area (CYP3A4 [5]): 3.4 % of Radioactivity
Vmax of metabolite formation (CYP3A4 [5]): 2.48E+04 peak area/pmol CYP/min
Recovery of filapixant and metabolite formation, Liver Microsomes [6]: 2.4 % of radioactivity
Recovery of filapixant and metabolite formation, Hepatocytes [8]: 0–1.7 % of radioactivity
Vmax of metabolite formation [7]: 4.34E+04 peak area/pmol CYP/min
Km at 30 min [7]: 28.5 µM
SMILES: CNC[C@@H](O)COc1cc(C(=O)N[C@H](C)c2cnc(C(F)(F)F)nc2)cc(-c2ncc(C)s2)c1 [M-8]
